According to patent publication US20250195660A1, “INACTIVATING BACTERIA WITH ELECTRIC PULSES AND ANTIBIOTICS” (Purdue Research Foundation, priority 2018, published 2025):
“Also recorded” adds a separate entry of the source.

What was measured:
[1] = test system: carbapenem-resistant Escherichia coli (ATCC BA-2452, NDM-1 positive); experiment: Inactivation of carbapenem-resistant E. coli by 300 ns electric pulses and/or antibiotics (CFU plating); format: cell-based; conditions: drug alone, 2 μg/mL or 20 μg/mL, no EPs
Excerpt: (§1) Except for rifampicin, the five other antibiotics in these examples primarily target gram-positive bacteria and are largely ineffective or not used against gram-negative bacteria in a clinical setting.
(§2) A Blumlein pulsed generator consisting of two lines comprised of twelve 2000 pF capacitors connected by inductors produced 300 ns EPs with rise-times of 30 ns and fall-times of 35 ns at a repetition frequency of 1 Hz (12). The EPs were applied to a standard 2 mm gap electroporation cuvette (Dot Scientific R) filled with a solution containing the microorganisms. Used was a Luria broth of 0.5% salinity (5 grams of NaCl/Liter) for the solution to electrically match the resistance of the sample with the impedance of the pulse generator (11Ω) to prevent signal reflection. The voltage measurements were taken using a LeCroy PPE 20 kV high voltage probe with a 1000:1 attenuation recorded by a TeleDyne LeCroy® Waverunner 6 Zi Oscilloscope with a bandwidth of 4 GHZ.
(§3) The gram-negative strains included a carbapenem-resistant Escherichia coli (ATCC® BA-2452TM, New Delhi metallo-beta-lactamase NDM-1 positive.), Klebsiella pneumoniae (ATCC® BAA-2146TM NDM-I positive), and a gentamicin, streptomycin and sulfonamide resistant Pseudomonas aeruginosa (BEI Resources NR-31040). Assessed was the gram-positive strain of methicillin resistant Staphylococcus aureus (USA300-0114 strain), which is also resistant to erythromycin and tetracycline. Samples were cultured in Luria broth (LB Broth Lennox, powder microbial growth medium, SIGMA-ALDRICH®) by taking 25 mL of broth in a 50 mL sterile conical tube and incubating in a shaker for 16 h at 37° C. Samples were diluted 50% by adding 25 mL media to the incubated sample as we plated controls for each experiment and condition.
(§4) Samples were treated in 2 mm gap cuvettes containing 365 μL of sample between the electrodes, with bio-grade mineral oil added on top of the electrode plates to prevent arcing.
(§5) To establish a common baseline for comparing different NSEP parameters, we fixed the energy density U delivered to the cuvettes according to Formula (1) (above). For 300 ns EPs, 500 EPs at 20 kV/cm and 222 EPs at 30 kV/cm delivered the same energy to the sample.
(§6) Tissue culture Petri dishes from VWR R (15 cm diameter, 10 mm height) were utilized for plating. Each plate was covered with 15 mL of Luria broth (Agar, microbiology tested powder, SIGMA-ALDRICH®), which was prepared by adding 20 g of LB Lennox (SIGMA-ALDRICH) and 15 g/L of agar to water prior to being autoclaved. The salinity of the agar was the same as the LB (0.5% NaCl) to minimize additional environmental stressors on the bacteria.
(§7) Removed was 20 μL from each cuvette and added to 180 μL of PBS in a 96-well dish in triplicate. Each well was then diluted by a ratio of 10:1 five additional times by taking 20 μL of the diluted sample into subsequent wells using multi-channel pipettes (using fresh tips for each dilution). Plated were the six dilutions of each sample two times each by adding 4 μL from each well onto the Petri dish using a multi-channel pipette, which allowed the plating of all three replicates on the same plate to achieve n=6. These plates were then cultured overnight in an incubator at 37° C., and counted the next day.

bacteria = experiment: Low-dose tobramycin combined with a train of NSEPs, bacterium not specified; format: cell-based; conditions: 0.2 μg/mL, 1/20th of the recommended clinical dose; whole process approximately 15 min
Excerpt: (§8) Equipment. Used was a capacitor based Blumlein pulse generator with a spark gap switch to produce trapezoidal EPs of 300 ns duration at the peak with rise and fall times close to 50 ns. Multiple pulses were delivered at a frequency of 1 Hz.
Sample Preparation. These experiments assessed Stapphylococcus aureus (gram positive bacterium number 25923) from ATCC and Esherichia coli (gram negative bacterium number 25922) inoculated in luria broth (LB Broth Lennox, powder microbial growth medium. SIGMA-ALDRICH) by taking 8 mL of broth in a 50 mL sterile conical tube and incubating in a shaker for 20 h at 37° C. The sample was then diluted with fresh Luria broth until attaining an optical density of 0.25 for 100 μL on a photospectrometer (Molecular Devices) for a wavelength of 562 nm as measured in a 96-well plate. The optical density, which varies with growth or tube volume, was determined experimentally and set between 1×10^8 and 1.5×10^8 colony forming units (CFUs)/mL for the samples to be pulsed. […]
(§9) Plated were samples at dilutions of 10^−6 and 10^−3 for low and high electric field treatments, respectively, and at 10^−6 and 10^−5 for controls All samples containing 100 μL of pulsed or diluted cultures were plated on LB agar plates and counted after overnight incubation at 37° C. […]

[2] = test system: Esherichia coli (gram negative bacterium number 25922); experiment: Inactivation of E. coli by 300 ns electric pulses combined with antibiotic (CFU plating); format: cell-based, Escherichia coli; parameters: synergy, E. coli: dose or concentration left out as unconfirmed
Description: as §8
The samples were treated in a standard electroporation cuvette (Dot Scientific) whose resistance must match the pulse generator's impedance to prevent pulse reflection. […] Used were 2 mm cuvettes to ensure consistency between tests, and the applied voltage was measured across the cuvette using a LeCroy PPE 20 kV high voltage probe with a 1000:1 attenuation feeding into a TeleDyne LeCroy Waverunner 6 Zi Oscilloscope capable of measuring signals up to 4 GHz. Assuming a purely parallel plate geometry with minimal fringing gives an electric field E=V/d, where V is the peak voltage of the applied pulse and d is the gap distance.
(§10) Sample Preparation. These experiments assessed Stapphylococcus aureus (gram positive bacterium number 25923) from ATCC and Esherichia coli (gram negative bacterium number 25922) inoculated in luria broth (LB Broth Lennox, powder microbial growth medium. SIGMA-ALDRICH) by taking 8 mL of broth in a 50 mL sterile conical tube and incubating in a shaker for 20 h at 37° C. The sample was then diluted with fresh Luria broth until attaining an optical density of 0.25 for 100 μL on a photospectrometer (Molecular Devices) for a wavelength of 562 nm as measured in a 96-well plate. The optical density, which varies with growth or tube volume, was determined experimentally and set between 1×10^8 and 1.5×10^8 colony forming units (CFUs)/mL for the samples to be pulsed. These samples were then plated at dilutions between 10-6 and 100 (no dilution) depending on the effectiveness of the pulse treatments.
(§11) Electric Pulse Treatment Protocol. […] Although no consensus exists on a universal scaling law for applied EP “dose,” we fixed the energy density
(§12) [formula] • where N is the number of pulses and τ is the pulse duration. Fixing U for E=40, 30, and 20 kV/cm gave N=250, 445, and 1000 pulses, respectively. Cultures were plated as described below.
Cuvettes were filled with 365 μL of sample (sufficient to just cover the electrodes) and then 250 μL of molecular biology grade mineral oil was placed on top.
(§13) Added were 0.2, 2, and 20 μg/mL of each drug to the initial bacterial dilutions prior to pulsing. Samples were immediately placed on ice to minimize cell division and reduce variability. These aliquots were also used to plate individual unpulsed controls for each drug concentration.
(§14) Plating. Plating was done on standard disposable tissue culture Petri dishes from VWR (15 cm diameter, 10 mm height) and covered with 10 mL of agar in luria broth (Agar, microbiology tested powder, SIGMA-ALDRICH), which was prepared by adding 20 g of LB lennox (SIGMA-ALDRICH) and 15 g/L of agar to water and then autoclaved.
Plated were samples at dilutions of 10^−6 and 10^−3 for low and high electric field treatments, respectively, and at 10^−6 and 10^−5 for controls All samples containing 100 μL of pulsed or diluted cultures were plated on LB agar plates and counted after overnight incubation at 37° C.
Pulsing with drugs: bacterial samples of both gram-positive S. aureus and gram-negative E. coli strains were pulsed in a solution with 0.2, 2, and 20 μg/mL of tobramycin and compared to an un-pulsed drug-exposed control. Pulsing and plating were performed to ensure that the drug exposure time of the bacteria was approximately fifteen minutes.

[3] = test system: Stapphylococcus aureus (gram positive bacterium number 25923); experiment: Inactivation of S. aureus by 300 ns electric pulses combined with antibiotic (CFU plating); format: cell-based, Staphylococcus aureus
Description: as §8
The samples were treated in a standard electroporation cuvette (Dot Scientific) whose resistance must match the pulse generator's impedance to prevent pulse reflection. Utilizing Luria broth, containing 0.5% NaCl, in a cuvette with gap distances of 1 mm and 2 mm yielded the best electrical match (no reflections in the measured signal). Used were 2 mm cuvettes to ensure consistency between tests, and the applied voltage was measured across the cuvette using a LeCroy PPE 20 kV high voltage probe with a 1000:1 attenuation feeding into a TeleDyne LeCroy Waverunner 6 Zi Oscilloscope capable of measuring signals up to 4 GHz. Assuming a purely parallel plate geometry with minimal fringing gives an electric field E=V/d, where V is the peak voltage of the applied pulse and d is the gap distance.
as §10, §11, §12
Cuvettes were filled with 365 μL of sample (sufficient to just cover the electrodes) and then 250 μL of molecular biology grade mineral oil was placed on top. Keeping the samples on ice upon achieving the required dilution further reduced experimental variability by slowing biological processes, such as fission This facilitated the assessment of the inactivation efficiency of EPs, drugs, and combined treatments.
as §13, with “Tests used the clinically relevant, bactericidal drug tobramycin, which targets the 30S and 50S ribosome complex and has a clinical dose from 4 to 5 μg/mL and rifampicin, which inhibits bacterial […]. Added” for “Added”
as §14, §9

[4] = test system: Klebsiella pneumoniae (ATCC BAA-2146 NDM-I positive); experiment: Inactivation of K. pneumoniae by 300 ns electric pulses and/or antibiotics (CFU plating); format: cell-based; conditions: 30 kV/cm NSEPs + 20 μg/mL
Excerpt: as §1, §2, §3, §4, §5, §6, §7

[5] = test system: gentamicin, streptomycin and sulfonamide resistant Pseudomonas aeruginosa (BEI Resources NR-31040); experiment: Inactivation of P. aeruginosa by 300 ns electric pulses and/or antibiotics (CFU plating); format: cell-based
Excerpt: as §1, §2, §3, §4, §5, §6, §7

[6] = same energy, different electric fields and number of pulses, different concentrations, vs antibiotic alone

SMILES | change in E. coli population [1] | synergy with NSEPs (bacteria) | synergy, E. coli ([2]; 20 kV/cm treatment) | synergy, E. coli ([2]; 30 and 40 kV/cm treatments) | reduction of E. coli ([2]; 40 kV/cm EPs combined with antibiotic, considered complete sterilization) | synergy, E. coli ([2]; any of the applied electric fields, any concentration (FIG. 5B)) | effect of combining trains of 300 ns EPs with antibiotic on amount of viable E. coli [2, 6] | reduction in S. aureus population ([3]; 20 kV/cm EPs + 0.2 μg/mL) | log-reduction of S. aureus ([3]; 20 kV/cm EPs + 2 μg/mL) | log-reduction of S. aureus ([3]; 20 kV/cm EPs + 20 μg/mL) | synergy (additional inactivation induced by the antimicrobial for a given pulse condition), S. aureus ([3]; 20 kV/cm pulse trains, 0.2 μg/mL) | synergy, S. aureus ([3]; 20 kV/cm pulse trains, 2.0 μg/mL) | synergy, S. aureus ([3]; 30 and 40 kV/cm pulse trains, 2 and 20 μg/mL doses) | effect of combining trains of 300 ns EPs with antibiotic on amount of viable S. aureus [3, 6] | log reduction of K. pneumoniae / improvement over the NSEPs [4] | synergy (FIG. 11B legend) ([5]; 20 kV/cm EPs + 20 μg/mL) | additional inactivation of P. aeruginosa ([5]; 20 kV/cm NSEPs + 2 μg/mL or 20 μg/mL)
CC(=O)O[C@H]1C[C@@]2(C)[C@@H](C[C@@H](O)[C@H]3[C@@]4(C)CC[C@@H](O)[C@@H](C)[C@@H]4CC[C@@]32C)/C1=C(\CCC=C(C)C)C(=O)O [fusidic acid] | induced changes | – | – | – | – | – | – | – | – | – | – | – | – | – | – | – | –
NC[C@H]1O[C@H](O[C@H]2[C@H](O)[C@@H](O[C@H]3O[C@H](CO)[C@@H](O)[C@H](N)[C@H]3O)[C@H](N)C[C@@H]2N)[C@H](N)C[C@@H]1O [tobramycin] | – | Synergy occurred | did not | exhibited synergy | over 9 log-10 | experienced synergy | synergistically reduced; also recorded: significantly greater inactivation | 10-20% | 1.5 log | 2.6 log | no synergy | 1.5 log | synergies occurred | synergistically reduced; also recorded: significantly greater inactivation | – | – | –
CC(=O)NC[C@H]1CN(c2ccc(N3CCOCC3)c(F)c2)C(=O)O1 [linezolid] | induced changes | – | – | – | – | – | – | – | – | – | – | – | – | – | did not induce a statistically significant improvement | approximately 2 log | no additional inactivation
